{"source": "patent US10555919B2", "about": "“Melatonin in autoimmune disease” (The Brigham and Women's Hopsital, Inc., priority 2014, dated 2020)", "key": {"CD4+ T cells [1]": {"system": "CD4+ T cells", "assay": "Flow cytometry of T cell subsets from spleen, lymph nodes and CNS of EAE mice", "type": "in vivo, C57BL/6 wild-type mice", "settings": "melatonin 5 mg/kg daily", "method": "For intracellular cytokine staining, cells were stimulated for 4 h at 37° C. with phorbol 12-myristate 13-acetate (50 ng/ml; Sigma), ionomycin (1 μg/ml; Sigma) and monensin (GolgiStop; 1 μg/ml; BD Biosciences). After being stained for surface markers, cells were fixed and made permeable according to the manufacturer's instructions (BD Biosciences). All antibodies against cytokines were from Biolegend. All experiments were started at the same time (8-9 am). Data were collected with a LSR II or FACSAria (BD Biosciences), then were analyzed with FlowJo software (Treestar). CNS infiltrates were isolated as described (Mascanfroni et al., 2013). Mice were perfused with ice-cold PBS. The brain and spinal cord were removed and incubated in PBS containing collagenase type III (2 mg/ml; Worthington) and DNase (20 units/ml; Sigma-Aldrich). Tissues were then homogenized and loaded on a 30%-37%-70% Percoll gradient for enrichment of CNS infiltrates. Based on our epidemiological findings, we studied the effects of melatonin on CNS inflammation using the experimental autoimmune […] (EAE) model of MS. Naïve C57BL/6 wild-type mice were immunized with MOG35-55 and treated daily with melatonin (5 mg/kg, intraperitoneally) or vehicle. Melatonin administration ameliorated EAE clinical symptoms (FIG. 2a, Table 2 and FIG. 7a)."}, "CD4+ T cells [2]": {"system": "CD4+ T cells", "assay": "Th17 differentiation in vivo in RAG-1 deficient mice reconstituted with CD4+ T cells and immunized with MOG35-55 in CFA", "settings": "melatonin 5 mg/kg", "text": "Sorted splenic CD4+ T cells from C57BL/6, MTNR1A-, REV-ERBα and NFIL3-deficient mice were transferred i.p. (10×10^6 cells per mouse) into RAG-1 deficient mice. Ten days after transfer, mice were checked for reconstitution of CD4+ T cells and immunized with MOG35-55 in CFA. Twenty days after immunization, T cells were isolated and stained for cytokines."}, "[3]": {"system": "human CD4+ T cells activated under Th17 polarizing conditions", "assay": "In vitro human Th17 differentiation", "type": "cell-based", "settings": "500 ng/ml", "method": "In vitro human T cell differentiation. For Th17 differentiation, naive CD45RA+ CD4+ T cells were isolated from PBMCs with magnetic beads (Naive Human CD4+ T Cell Isolation Kit II, Miltenyi Biotec) and seeded at a density of 5×10^5 cells/ml in 24-well plates coated with anti-CD3 and (2 μg/ml) and soluble anti-CD28 and cultured in the presence of the following cytokines IL-1β (25 ng/ml), IL-6 (50 ng/ml), and TGF-β1 (2 ng/ml) and neutralizing antibodies to IFN-g ([…]) and IL-4 (10 microgram/ml). Alternatively, Th17 cells were differentiated by using IL-1β (25 ng/ml), IL-6 (50 ng/ml), and IL-23 (50 ng/ml) and neutralizing antibodies to IFN-g ([…]) and IL-4 (10 microgram/ml). For Th1 differentiation naïve CD4+T cells are cultured in the presence of IL-12 (20 ng/ml) and anti-IL-4 (10 μg/ml).\n(§1) Secreted cytokines were measured in tissue culture supernatants after 72-96 hs by enzyme-linked immunosorbent assay as previously described (Farez et al., 2009)."}, "[4]": {"system": "murine Th17 cell differentiation", "assay": "In vitro mouse Th17 cell differentiation", "type": "cell-based", "settings": "melatonin 2 ng/ml", "method": "For intracellular cytokine staining, cells were stimulated for 4 h at 37° C. with phorbol 12-myristate 13-acetate (50 ng/ml; Sigma), ionomycin (1 μg/ml; Sigma) and monensin (GolgiStop; 1 μg/ml; BD Biosciences). After being stained for surface markers, cells were fixed and made permeable according to the manufacturer's instructions (BD Biosciences). All antibodies against cytokines were from Biolegend. All experiments were started at the same time (8-9 am). Data were collected with a LSR II or FACSAria (BD Biosciences), then were analyzed with FlowJo software (Treestar).\nNaive CD4+ T cells (CD4+CD44loCD62LhiCD25−) were from the spleen and lymph node of C57BL/6 wild-type, MTNR1A−, NFIL3−, REV-ERBα, C/EBPα-deficient or RORα-deficient mice using magnetic beads (CD4+ T cell isolation kit, Miltenyi Biotec). All experiments were started between 7 and 9 am. Cells were activated with plate-bound anti-CD3 (2 μg/ml; 14-0031-86; eBioscience) and anti-CD28 (2 μg/ml; 16-0281-86; eBioscience). Mouse IL-27 (30 ng/ml; 34-8271; Biolegend) was added for the generation of Tr1 cells. IL-6 (30 ng/ml; 406-ML-025; R&D Systems), TGF-β1 (15 ng/ml; 130-095-067; Miltenyi Biotec), anti-IL-4 (2.5 μg/ml; C17.8; Biolegend) and anti-IFN-γ (5 μg/ml; XMG1.2; Biolegend) were added for the generation of Th17 cells. Recombinant mouse IL-23 (30 ng/ml; 1887-ML-010; R&D Systems) was added at day 2. For some experiments IL-6 and […] (10 ng/ml; 401-ML-025; R&D Systems) or TGF-β1 and IL-21 (100 ng/ml; 594-ML-010; R&D Systems) were used in instead for Th17 cell differentiation. IL-12 (30 ng/ml; 419-ML-010; R&D Systems) and anti-IL-4 (2.5 μg/ml; C17.8; Biolegend) were used for the generation of Th1 cells. IL-4 (30 ng/ml; 404-ML-010; R&D Systems) and anti-IFN-γ (5 μg/ml; XMG1.2; Biolegend) was added for the generation of Th2 cells. TGF-β1 (15 ng/ml; 130-095-067; Miltenyi Biotec) was used for the generation of Foxp3+ Tregs. Melatonin (Gador, Argentina), Agomelatin, and CGP-52608 (Sigma-Aldrich) were added at the start of the cultures and at day 2, at a final concentration of 2-20 ng/ml.\nas §1"}, "[5]": {"settings": "during Th17 cell differentiation, 3 days"}}, "note": "“Also recorded” adds a separate entry of the source.", "data": [{"smiles": "COc1ccc2[nH]cc(CCNC(C)=O)c2c1", "note": "[Melatonin, N-Acetyl-5-methoxytryptamine]", "values": [{"measurement": "IL-10 secreting CD4+ T cells", "setting": "CD4+ T cells [1]", "value": "increase"}, {"measurement": "number and frequency of Th17 cells in spleen, lymph nodes and CNS", "setting": "CD4+ T cells [1]", "value": "decreased number and frequency"}, {"measurement": "number or frequency of other T cell subsets, B cells, γδ T cells or innate lymphoid cells (ILCs)", "setting": "CD4+ T cells [1]", "value": "no significant changes"}, {"measurement": "Th17 cell differentiation in vivo", "setting": "CD4+ T cells [2]; mice reconstituted with MTNR1A-, REV-ERBα or NFIL3-deficient T cells", "value": "increased"}, {"measurement": "Th17 cell differentiation in vivo", "setting": "CD4+ T cells [2]; mice reconstituted with wild type CD4+ T cells", "value": "suppression"}, {"measurement": "production of IL-17, RORC and IL17A expression", "setting": "[3]", "value": "reduced"}, {"measurement": "IL10 expression", "setting": "[3]; Th17 polarizing conditions", "value": "increased"}, {"measurement": "differentiation of MTNR1A-deficient (MTNR1A KO) Th17 cells", "setting": "[4]; MTNR1A KO", "value": "failed to suppress; also recorded: boosted"}, {"measurement": "expression of both ROR-α and ROR-γt", "setting": "[4]; Th17 polarizing conditions", "value": "reduced"}, {"measurement": "expression of IL-10", "setting": "[4]; Th17 polarizing conditions, 72 hs", "value": "increased"}, {"measurement": "expression of the ROR-γt repressor NFIL3", "setting": "[4]; [5]", "value": "increase"}, {"measurement": "nr1d1 expression", "setting": "[4]; [5]", "value": "suppressed"}, {"measurement": "differentiation of Th17 cells (rorc, IL-17, IL-23 receptor)", "setting": "[4]; wild type, agomelatine 20 ng/ml, ramelteon 10 ng/ml, CGP 52608 20 ng/ml", "value": "interfered"}]}]}
